Measurements as given in patent publication US20030013717A1, “Use of cox-2 inhibitors for constipation” (priority 2000, published 2003).

Experiments:
[1] = tested on: canine antrum circular muscles; assay: Smooth muscle in vitro model: antral circular muscle strips, acetylcholine-induced contraction; type: cell-based; details: test agent 10 μM; acetylcholine 1 μM; organ bath, Krebs solution; n=4-8 strips; FIG. 1
Description: Smooth Muscle in Vitro Model of Gastric Propulsion
Agents which stimulate antral smooth muscle activity would be expected to enhance the rate of gastric emptying by propulsion of contents in the aboral direction. By contrast, fundic relaxation could lead to delayed emptying of the stomach as the upper stomach would serve as a reservoir for gastric contents.
The effects of test agents were evaluated on strips of canine antrum circular muscles (n=4-8 strips) suspended in organ baths bathed with Krebs solution. Following establishment of baseline tension, acetylcholine (“ACh”; 1 μM), indomethacin (10 μM), or 8-acetyl-3-(4-fluoro-phenyl)-2-(4-methanesulfonyl-phenyl)-imidazo[1,2-a]pyridine (“8-Acetyl- . . . ”; 10 μM) were applied and tension changes monitored and recorded on a polygraph.

[2] = tested on: canine fundic circular muscle; assay: Smooth muscle in vitro model: fundic circular muscle strips, tension change; type: cell-based; details: test agent 10 μM; n=6-8 strips; FIG. 2
Beagle dogs = assay: Dog model of gastric emptying (solid phase, gamma camera); type: in vivo; details: po for three days, measured on fourth day after am dosing; cisapride 0.14 mg/kg TID, celecoxib 2.8 mg/kg BID, 8-acetyl compound 1.2 mg/kg BID; FIG. 3
Description: Activity in Vivo: Dog Model of Gastric Emptying
Beagle dogs were treated for three days with test agents (po administration): placebo BID; cisapride 0.14 mg/kg TID; celecoxib 2.8 mg/kg BID; or 8-acetyl-3-(4-fluoro-phenyl)-2-(4-methanesulfonyl-phenyl)-imidazo[1,2-a]pyridine 1.2 mg/kg BID. Solid phase gastric emptying was measured on the fourth day following am dosing. The same three animals were used for evaluation of each agent, thus reducing any interanimal variations.
Isotope-labeled solid food was fed to the dogs for their morning meal and animals were then placed under a gamma camera and scans performed over the 24 to 36 hours.

dogs = assay: Dog model of lower esophageal sphincter pressure (LESP); type: in vivo; details: 3 days treatment, measured day 4 after am dose; cisapride 0.14 mg/kg TID, celecoxib 1.2 mg/kg BID; compared to placebo; FIG. 4
Description: Activity in Vivo: Dog Model of Lower Esophageal Sphincter Pressure (LESP) Six adult dogs were instrumented with 14 French esophagostomy tubes. Animals were treated for 3 days with placebo (BID), cisapride (0.14 mg/kg TID) or celecoxib (1.2 mg/kg BID). On day 4 dogs received their am dose of test agent and water perfused manometry catheters were inserted through the esophagostomy tubes. Lower esophageal sphincter pressures (LESPs) were then monitored.

Rats = assay: Rat model of post-operative ileus (methylene blue meal transit); type: in vivo; details: 3 mg/kg intravenous infusion; four hours post-gavage; eight rats; p<0.05; vehicle 49.3 cm
Description: Activity in Vivo: Rat Model of Post Perative Ileus
The selective COX-2 inhibitor 2-(4-ethoxy-phenyl)-3-(4-methanesulfonyl-phenyl)-pyrazolo[1,5-b]pyridazine was evaluated in a rat model of post-operative ileus. The methodology represents a modification of the procedure described by McGill et al, Gastroenterology 116: A1040 (1999).
Rats (fourteen) received 0.5 cc of skimmed milk with methylene blue by gavage. Either vehicle (six rats) or 2-(4-ethoxy-phenyl)-3-(4-methanesulfonyl-phenyl)-pyrazolo[1,5-b]pyridazine (eight rats) was then administered by intravenous infusion. Rats were sacrificed four hours post-gavage and the distance the methylene blue meal traversed the intestine measured. The pylorus was set at 0 cm. With vehicle treatment, the meal traversed 49.3+1.3 cm while with 2-(4-ethoxy-phenyl)-3-(4-methanesulfonyl-phenyl)-pyrazolo[1,5-b]pyridazine (3 mg/kg), the meal traversed 67.8±1.1 cm (p<0.05).

SMILES | sensitisation of antral circular muscle to acetylcholine-induced contractions [1] | relaxation / tension change of fundic circular muscle [2] | rate of solid phase gastric emptying (Beagle dogs) | lower esophageal sphincter pressure (LESP) (dogs) | distance the methylene blue meal traversed the intestine (pylorus = 0 cm) (Rats)
COc1ccc2c(c1)c(CC(=O)O)c(C)n2C(=O)c1ccc(Cl)cc1 [indomethacin] | enhanced acetylcholine-induced contractions | near complete relaxation | – | – | –
COc1cc(N)c(Cl)cc1C(=O)NC1CCN(CCCOc2ccc(F)cc2)CC1OC (stereo not shown) [Cisapride, cisapride] | – | – | increased the rate of gastric emptying | increased LESP | –
CCOc1ccc(-c2nn3ncccc3c2-c2ccc(S(C)(=O)=O)cc2)cc1 [2-(4-ethoxy-phenyl)-3-(4-methanesulfonyl-phenyl)-pyrazolo[1,5-b]pyridazine] | – | – | – | – | 67.8±1.1 cm
CC(=O)c1cccn2c(-c3ccc(F)cc3)c(-c3ccc(S(C)(=O)=O)cc3)nc12 [8-acetyl-3-(4-fluoro-phenyl)-2-(4-methanesulfonyl-phenyl)-imidazo[1,2-a]pyridine] | – | only small changes in tension | increased the rate of gastric emptying | – | –
